{"source": "patent US20210198629A1", "about": "“COMPOSITIONS AND METHODS FOR INCREASING BEIGING OF WHITE ADIPOSE TISSUE” (University of Georgia Research Foundation, Inc., priority 2018, published 2021)", "key": {"[1]": {"test_system": "differentiated white adipocytes", "experiment": "RT-qPCR of markers after treating differentiated white adipocytes", "assay_type": "cell-based, mouse", "conditions": "differentiated white adipocytes treated for 48 hours", "description": "To differentiate into adipocytes, white adipose progenitor cells were cultured in growth media to reach 100% confluence for 1 day. The growth media was changed into basal induction medium (DMEM high glucose containing 10% FBS, 0.5 mM isobutylmethylxanthine, […] indomethacin, 2 μg/mL dexamethasone, 850 nM insulin, 1% penicillin/streptomycin). After 2-day induction, the media was changed to basal differentiation medium (DMEM high glucose containing 10% FBS, 850 nM insulin, 1% penicillin/streptomycin) and further incubated for 4-5 days. To differentiate beige adipocytes, fully confluent white adipose progenitor cells were incubated with the above induction medium supplemented with […] rosiglitazone and 1 nM T3 for 2 days and further differentiated in the basal differentiation medium supplemented with […] rosiglitazone and 1 nM T3 for 4-5 days.\nTotal RNA was isolated from tissue or cell culture using TRIzol. Total RNA (500 ng) from tissues or cell culture was used in 25 μL reverse transcription reactions (Maxima; Life technologies) and diluted into 250 μL. Diluted cDNA (2 μL) was used in quantitative PCR reactions (SsoAdvanced™ Universal SYBR Green mix; Bio-Rad) on a BioRad CFX384™ Real-Time PCR Detection System. Cq-values were determined and expression values were calculated by BioRad CFX Manager™ Software. Relative mRNA expression values were normalized to inner reference genes Rps18 and Tbp of each biological sample. For mitochondrial copy number qPCR, mitochondrial Cox2 gene was amplified and normalized to genomic β-globin gene.\nIn the above lentivirus-based primary/secondary screenings, sgRNA-mediated genome editing and consequent gene KO could occur either in proliferative adipose progenitor cells or fully-differentiated adipocytes. As such, Brd9 may function as a beige lineage repressor by either repressing the beige adipocyte lineage differentiation or the white-to-beige adipocyte conversion. To distinguish the above possibilities, white adipocytes were differentiated from white adipose progenitor cells under the basal differentiation condition and the differentiated white adipocytes were treated with BI-7273 for 48 hours. […] Therefore, BI-7273 likely induces the beige lineage determination and differentiation of white adipose progenitor cells by inhibiting BRD9."}, "[2]": {"test_system": "DIO mice", "experiment": "Body weight, adiposity (BIS), food intake, treadmill exhaustion in DIO mice after oral BI-7273", "assay_type": "in vivo, mouse", "description": "Treadmill exhaustion test was performed with an Exer 3/6 treadmill and controller (Columbus Instruments). The treadmill was set up with a uphill inclination of 10%.\nMice were anesthetized with 1% isoflurane and lied flat dorsal side up with limbs perpendicular and tail straight. Four electrodes of ImpediVET were fastened with 28G needles and placed on four points on the midline of the body. Fat-free mass (FFM) and fat mass (FM) were calculated from total body water (TBW) determined by input body weight and complex impedance plotting of 256 frequencies between 4 kHz and 1000 kHz.\nGiven the above augmentation of whole-body energy expenditure in BI-7273 treated DIO models, whether BI-7273 is sufficient to induce body weight loss and reduce adiposity (anti-obesity effects) was also investigated. DIO models were gavaged with BI-7273 or control 0.5% Natrosol for 14 days as described above and later fed with HFD for one additional month. […] On average, BI-7273 treated DIO mice lost ˜15.5% of body weight at the end of the study (1.5 months after the start of gavage; FIG. 5F). This weight loss rate is higher than the criterium established by the Endocrine Society for effective treatment of obesity (>5% weight loss over three months) (Apovian, C. M., et al., J Clin Endocrinol Metab, 100, 342-362 (2015)).\nUsing bioimpedance spectroscopy (BIS), the adiposity (fat mass percent) of mice before and after gavage was measured. […] On average, the reduced fat mass (55 grams×21%=11.6 grams) in BI-7273 treated mice was more than the body weight loss at the end of the study (˜9 grams), which indicates a concomitant increase of lean mass in BI-7273 treated DIO mice."}, "[3]": {"test_system": "acute myeloid leukemia (AML) cells", "conditions": "AML cells in vitro; cited from earlier work"}, "[4]": {"test_system": "AML xenograft model", "conditions": "cited from earlier work"}, "[5]": {"conditions": "in vivo; cited from earlier work"}, "[6]": {"test_system": "primary white adipose progenitor cells", "experiment": "RT-qPCR of markers after treating proliferative primary white adipose progenitor cells, then basal differentiation", "method": "Tissue suspension was sequentially filtered through 100 and 70 μm cell strainers and centrifuged at 800×g for 5 min to pellet SVF cells.\nThe cell pellet was resuspended in a growth medium (DMEM high glucose containing 20% FBS and 1% penicillin/streptomycin), plated on collagen-coated cell culture plates, and cultured at 37° C. with 5% CO2. To expand adipose progenitor cells, proliferative adipose progenitor cells were passaged for two times when the confluence reaches 70%.\nTo differentiate into adipocytes, white adipose progenitor cells were cultured in growth media to reach 100% confluence for 1 day. […] After 2-day induction, the media was changed to basal differentiation medium (DMEM high glucose containing 10% FBS, 850 nM insulin, 1% penicillin/streptomycin) and further incubated for 4-5 days. To differentiate beige adipocytes, fully confluent white adipose progenitor cells were incubated with the above induction medium supplemented with 2 mM rosiglitazone and 1 nM T3 for 2 days and further differentiated in the basal differentiation medium supplemented with 1 mM rosiglitazone and 1 nM T3 for 4-5 days."}, "[7]": {"conditions": "10 μM for 48 hours in progenitor stage, then basal differentiation, vs 0.1% DMSO"}}}
{"compound": "COc1cc(-c2cn(C)c(=O)c3cnccc23)cc(OC)c1CN(C)C", "note": "[BI-7273, 4-[4-[(dimethylamino)methyl]-3,5-dimethoxyphenyl]-2-methyl-2,7-naphthyridin-1-one]", "values": [{"measurement": "Ucp1 mRNA increase", "setting": "[1]", "result": 1.6, "unit": "fold"}, {"measurement": "adipogenic markers (Pparg2, Leptin, Adiponectin, Fabp4)", "setting": "[1]", "result": "not affected"}, {"measurement": "mitochondrial markers (Ndufb2, Sdha, Uqcrc2, Cox8b, Atp5a1) increase", "setting": "[1]", "result": "1.7-2.0 fold"}, {"measurement": "other beige lineage markers (Pgc1α, Cedia, Dio2, Elovl3)", "setting": "[1]", "result": "did not raise"}, {"measurement": "reduced fat mass", "setting": "[2]; 55 grams×21%, end of study", "result": 11.6, "unit": "grams"}, {"measurement": "adiposity (fat mass percent)", "setting": "[2]; BIS, end of study, 1.5 months after the start of gavage, ~47% before gavage", "result": "~26", "unit": "%"}, {"measurement": "treadmill performance (time until exhaustion)", "setting": "[2]; after treatment", "result": "improved"}, {"measurement": "food intake", "setting": "[2]; before and after gavage, vs control group", "result": "comparable"}, {"measurement": "body weight lost", "setting": "[2]; end of study, 1.5 months after the start of gavage, HFD refeeding", "result": "~15.5", "unit": "%"}, {"measurement": "body weight loss", "setting": "[2]; end of the study", "result": "~9", "unit": "grams"}, {"measurement": "lean mass", "setting": "[2]; inferred from fat mass vs body weight loss", "result": "increase"}, {"measurement": "MYC expression", "setting": "[3]", "result": "suppress"}, {"measurement": "rapid cell proliferation", "setting": "[3]", "result": "suppress"}, {"measurement": "antitumor activity", "setting": "[4]", "result": "antitumor activity"}, {"measurement": "bioavailability", "setting": "[5]", "result": "good and high"}, {"measurement": "adipocyte markers (Pparg2, Leptin, Adiponectin, Fabp4)", "setting": "[6]; [7]", "result": "not affected"}, {"measurement": "mRNA levels of beige lineage markers (Pgc1α, Ucp1, Cedia, Dio2, Elovl3)", "setting": "[6]; [7]", "result": "drastically increased"}, {"measurement": "mRNA levels of mitochondrial markers (Ndufb2, Sdha, Uqcrc2, Cox8b, Atp5a1)", "setting": "[6]; [7]", "result": "increased"}, {"measurement": "Pgc1β mRNA level", "setting": "[6]; proliferative white adipose progenitor cells, vs vehicle", "result": "increased"}]}
